According to ChEMBL document CHEMBL4699401, “Argininamide-type neuropeptide Y Y1 receptor antagonists: the nature of Nomega-carbamoyl substituents determines Y1R binding mode and affinity” (RSC Med Chem, 2020):

What was measured:
[1] = molecular target: T1, Neuropeptide Y receptor type 1 (Homo sapiens, UniProt P25929); assay: Displacement of [3H]UR-MK299 from Y1 receptor in human SK-N-MC cells by radioligand binding assay; type: cell-based
T1 sequence (P25929 whole entry): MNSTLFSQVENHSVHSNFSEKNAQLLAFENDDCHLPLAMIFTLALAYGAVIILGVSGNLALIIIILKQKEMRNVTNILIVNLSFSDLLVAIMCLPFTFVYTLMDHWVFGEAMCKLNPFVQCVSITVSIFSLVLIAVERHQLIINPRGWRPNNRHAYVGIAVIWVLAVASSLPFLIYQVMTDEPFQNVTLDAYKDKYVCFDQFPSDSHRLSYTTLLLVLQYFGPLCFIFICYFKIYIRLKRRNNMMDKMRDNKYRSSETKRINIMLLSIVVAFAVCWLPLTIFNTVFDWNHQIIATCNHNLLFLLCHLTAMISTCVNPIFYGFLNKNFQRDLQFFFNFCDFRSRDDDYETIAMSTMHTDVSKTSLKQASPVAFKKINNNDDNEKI

[2] = molecular target: T1, Neuropeptide Y receptor type 1; assay: Antagonist activity at Y1 receptor in human HEL cells assessed as reduction in pNPY-induced calcium mobilization preincubated for 15 mins followed by pNPY stimulation and measured immediately by Fura-2 dye based fluorescence assay; type: functional, cell-based
[3] = molecular target: T2, Neuropeptide Y receptor type 1 (Homo sapiens) (UniProt P25929); conditions: HEL, filed as antagonist, time 15.0 min
T2 sequence (whole entry): T1 sequence (P25929 whole entry)

Ki [1] | IC50 [2] | pKb [3] | Structure (SMILES)
0.0631 nM |  |  | CC(=O)NCCCNC(=O)/N=C(/N)NCCC[C@@H](NC(=O)C(c1ccccc1)c1ccccc1)C(=O)NCc1ccc(O)cc1
56.2 nM | 11.5 nM | 8.82 | N/C(=N/C(=O)NCCNC(=O)c1ccccc1)NCCC[C@@H](NC(=O)C(c1ccccc1)c1ccccc1)C(=O)NCc1ccc(O)cc1
302 nM | 95.5 nM | 7.9 | N/C(=N/C(=O)NCCNC(=O)Cc1ccccc1)NCCC[C@@H](NC(=O)C(c1ccccc1)c1ccccc1)C(=O)NCc1ccc(O)cc1
0.145 nM | 0.0912 nM | 10.9 | N/C(=N/C(=O)NCCNC(=O)CO)NCCC[C@@H](NC(=O)C(c1ccccc1)c1ccccc1)C(=O)NCc1ccc(O)cc1
1.1 nM | 0.24 nM | 10.5 | N/C(=N/C(=O)NCCNC(=O)C1CCC1)NCCC[C@@H](NC(=O)C(c1ccccc1)c1ccccc1)C(=O)NCc1ccc(O)cc1
0.0589 nM |  |  | CC(=O)NCCNC(=O)/N=C(/N)NCCC[C@@H](NC(=O)C(c1ccccc1)c1ccccc1)C(=O)NCc1ccc(O)cc1
1.17 nM | 0.24 nM | 10.5 | N/C(=N/C(=O)NCCNC(=O)C1CC1)NCCC[C@@H](NC(=O)C(c1ccccc1)c1ccccc1)C(=O)NCc1ccc(O)cc1
0.0741 nM |  |  | CCC(=O)NCCCNC(=O)/N=C(/N)NCCC[C@@H](NC(=O)C(c1ccccc1)c1ccccc1)C(=O)NCc1ccc(O)cc1
52.5 nM | 7.59 nM | 9 | N/C(=N/C(=O)NCCNC(=O)C1CCCC1)NCCC[C@@H](NC(=O)C(c1ccccc1)c1ccccc1)C(=O)NCc1ccc(O)cc1
0.309 nM | 0.0661 nM | 11.1 | CC(C)C(=O)NCCNC(=O)/N=C(/N)NCCC[C@@H](NC(=O)C(c1ccccc1)c1ccccc1)C(=O)NCc1ccc(O)cc1
102 nM |  |  | Cc1cc(/C=C/C=C/c2ccc(N(C)C)cc2)cc(C)[n+]1CCNC(=O)/N=C(/N)NCCC[C@@H](NC(=O)C(c1ccccc1)c1ccccc1)C(=O)NCc1ccc(O)cc1
295 nM | 16.2 nM | 8.67 | N/C(=N/C(=O)NCCNC(=O)c1ccc(F)cc1)NCCC[C@@H](NC(=O)C(c1ccccc1)c1ccccc1)C(=O)NCc1ccc(O)cc1
0.112 nM | 0.186 nM | 10.6 | C=CC(=O)NCCNC(=O)/N=C(/N)NCCC[C@@H](NC(=O)C(c1ccccc1)c1ccccc1)C(=O)NCc1ccc(O)cc1
0.126 nM | 0.0617 nM | 11.1 | N/C(=N/C(=O)NCCNC(=O)CBr)NCCC[C@@H](NC(=O)C(c1ccccc1)c1ccccc1)C(=O)NCc1ccc(O)cc1
295 nM | 525 nM | 7.16 | N/C(=N/C(=O)NCCNC(=O)C(c1ccccc1)c1ccccc1)NCCC[C@@H](NC(=O)C(c1ccccc1)c1ccccc1)C(=O)NCc1ccc(O)cc1
0.0676 nM | 0.11 nM |  | N/C(=N/C(=O)NCCNC(=O)C(F)F)NCCC[C@@H](NC(=O)C(c1ccccc1)c1ccccc1)C(=O)NCc1ccc(O)cc1
0.38 nM | 0.589 nM |  | N/C(=N/C(=O)NCCNC(=O)CCCl)NCCC[C@@H](NC(=O)C(c1ccccc1)c1ccccc1)C(=O)NCc1ccc(O)cc1
0.0708 nM | 0.126 nM |  | N/C(=N/C(=O)NCCNC(=O)C(F)(F)F)NCCC[C@@H](NC(=O)C(c1ccccc1)c1ccccc1)C(=O)NCc1ccc(O)cc1
45.7 nM | 14.5 nM | 8.71 | CC(C)(C)C(=O)NCCNC(=O)/N=C(/N)NCCC[C@@H](NC(=O)C(c1ccccc1)c1ccccc1)C(=O)NCc1ccc(O)cc1
0.0525 nM | 0.0794 nM |  | N/C(=N/C(=O)NCCNC(=O)CCl)NCCC[C@@H](NC(=O)C(c1ccccc1)c1ccccc1)C(=O)NCc1ccc(O)cc1
380 nM | 30.9 nM | 8.39 | N/C(=N/C(=O)NCCNC(=O)C1CCCCC1)NCCC[C@@H](NC(=O)C(c1ccccc1)c1ccccc1)C(=O)NCc1ccc(O)cc1

Structure (SMILES) | Ki [1] | IC50 [2] | pKb [3]
N/C(=N/C(=O)NCCNC(=O)CF)NCCC[C@@H](NC(=O)C(c1ccccc1)c1ccccc1)C(=O)NCc1ccc(O)cc1 | 0.0316 nM | 0.055 nM | 
